The source of these data is patent publication US20250275964A1, “METHODS OF INHIBITING LIVER-TYPE GLUTAMINASE, GLS2” (CORNELL UNIVERSITY, priority 2019, published 2025).

Molecules are shown by their SMILES.

Common to all, as to type: cell-based, human
One experiment relates to BT-474 cells. The experiment can be described thus: 6-day cell proliferation assay, BT-474. The settings on record: BT-474, proliferation over 6 days. As for the experimental part:
(§1) Human breast cancer cell lines MCF7, BT-474, T-47D, MDA-MB-453, MDA-MB-231, Hs 578T, HCC38, SK-BR-3, and DU4475 were purchased from the American Type Culture Collection (ATCC) and no additional cell authentication was performed. The TSE human breast cancer cell line was supplied by Dr. Steven Abcouwer (University of Michigan). All breast cancer cells were cultured at 37° C. under a 5% CO2 atmosphere in RPMI 1640 medium containing 2 mM glutamine (Gibco) and supplemented with 10% fetal bovine serum (FBS) (Gibco). The 293T cell line (ATCC) used for generating lentivirus particles was cultured as above but using DMEM, high glucose (Gibco).
(§2) Culture medium was added to 12-well plates (1 ml/well) and wells were seeded with cells at Day 0 as follows. MCF7, T-47D, BT-474, HCC38 cells: […] cells/well. MDA-MB-453 and MDA-MB-231 cells: 1×10^4 cells/well. TSE and Hs 578T cells: 0.3×10^4 cells/well. After 16 hours, culture medium was replaced with fresh medium supplemented with appropriate concentrations of inhibitors and was subsequently replaced every 48 hours. On Day 6 cells were trypsinized and suspended in an appropriate volume of culture medium, and the total number of cells per well was determined using a hemocytometer or a TC20 Automated Cell Counter (Bio-Rad).

In experiment [1] the test system is glutamine-mediated TCA cycle anaplerosis in breast cancer cells. The experiment can be described thus: [U-13C]-glutamine labeling and metabolite analysis. As for the experimental part: The procedures for metabolite extraction from cultured cells are described in previous studies (Cluntun et al., “The Rate of Glycolysis Quantitatively Mediates Specific Histone Acetylation Sites,” Cancer Metab. 3:10 (2015); Liu et al., “A Strategy for Sensitive, Large Scale Quantitative Metabolomics,” J. Vis. Exp. e51358-e51358 (2014), which are hereby incorporated by reference in their entirety). Briefly, adherent cells were grown in 6-well plates in biological triplicate to 80% confluence, medium was rapidly aspirated and cells were washed with cold PBS on ice. Then, 1 ml of extraction solvent (80% methanol/water) cooled to −80° C. was added to each well, and the dishes were transferred to −80° C. for 15 min. Cells were then scraped into the extraction solvent on dry ice. All metabolite extracts were centrifuged at 20,000×g at 4° C. for 10 min. Finally, the solvent in each sample was evaporated in a Speed Vacuum. The cell extracts were dissolved in 15 μl water and 15 μl methanol/acetonitrile (1:1 v/v) (LC-MS optima grade, Thermo Fisher Scientific). Samples were centrifuged at 20,000×g for 10 min at 4° C. and the supernatants were transferred to Liquid Chromatography (LC) vials. The injection volume for polar metabolite analysis was 8 μl.
Cells were grown to 80% confluence in 6-well plates with standard culture medium and washed with sterile PBS. Then, culture medium in which glutamine was replaced by [^13C5]-L-glutamine (Cambridge Isotope Laboratories), supplemented with dialyzed FBS (Gibco) and appropriate concentrations of inhibitors was added (1.5 ml/well). At the appropriate time-point, metabolites were extracted as described above.
A hydrophilic interaction liquid chromatography method (HILIC) with an Xbridge amide column (100×2.1 mm, 3.5 μm) (Waters) was employed on a Dionex (Ultimate 3000 UHPLC) for compound separation and detection at room temperature. The mobile phase A was 20 mM ammonium acetate and 15 mM ammonium hydroxide in water with 3% acetonitrile, pH 9.0, and the mobile phase B was acetonitrile. The linear gradient was as follows: 0 min, 85% B; 1.5 min, 85% B, 5.5 min, 35% B; 10 min, 35% B, 10.5 min, 35% B, 14.5 min, 35% B, 15 min, 85% B, and 20 min, 85% B. The flow rate was 0.15 ml/min from 0 to 10 min and 15 to 20 min, and 0.3 ml/min from 10.5 to 14.5 min. All solvents were LCMS grade and purchased from Thermo Fisher Scientific.
The Q Exactive MS (Thermo Scientific) is equipped with a heated electrospray ionization probe (HESI), and the relevant parameters are as listed: evaporation temperature, 120° C.; sheath gas, 30; auxiliary gas, 10; sweep gas, 3; spray voltage, 3.6 kV for positive mode and 2.5 kV for negative mode. Capillary temperature was set at 320° C., and S-lens was 55. A full scan range from 60 to 900 (m/z) was used. The resolution was set at 70,000. The maximum injection time was 200 ms. Automated gain control (AGC) was targeted at 3,000,000 ions.
Raw data collected from LC-Q Exactive MS were processed on Sieve 2.0 (Thermo Scientific) and ToxID 2.0 (Thermo Scientific). Peak alignment and detection were performed according to the protocol described by Thermo Scientific. For targeted metabolite analysis, the method ‘peak alignment and frame extraction’ was applied. An input file of theoretical m/z and detected retention time of 204 known metabolites was used for targeted metabolites analysis with data collected in positive mode, while a separate input file of 278 metabolites was used for negative mode. M/Z width was set at 10 ppm. The output file including detected m/z and relative intensity in different samples was obtained after data processing. The quantity of the metabolite fraction analyzed was adjusted to the corresponding protein concentration and cell count upon processing a parallel 6-well plate. Quantitation and statistics were calculated and visualized with Microsoft Excel, MORPHEUS and MetaboAnalyst online software.

Another experiment has as its system DU4475 cells. Put plainly: 6-day cell proliferation assay, DU4475. The note with it: DU4475, proliferation over 6 days. As to the method:
as §1, §2

The next experiment relates to TSE cells. Put plainly: 6-day cell proliferation assay, TSE. As for the experimental part: as §1, §2
The test system of another experiment is T-47D cells. Put plainly: 6-day cell proliferation assay, T-47D. The settings on record: proliferation over 6 days. As to the method: as §1, §2
The subject of a further experiment is MDA-MB-231 cells. Put plainly: 6-day cell proliferation assay, MDA-MB-231. As for the experimental part: as §1, §2
A further experiment relates to MCF7 cells. Put plainly: 6-day cell proliferation assay, MCF7. The note with it: MCF7, proliferation over 6 days. As to the method:
as §1, §2

The next experiment has as its system Hs 578T cells. The experiment can be described thus: 6-day cell proliferation assay, Hs 578T. The note with it: proliferation over 6 days. As for the experimental part:
as §1, §2

The mark [2] stands for this setting: TSE (parental), compared with GLS2 clones, 6 days.
The mark [3] stands for this setting: MDA-MB-231 (parental), compared with GLS2 clones, 6 days.
[4] abbreviates: MDA-MB-231, proliferation over 6 days.

The EC50 is the concentration giving half of the maximal effect. Regarding `O=C(Cc1ccccc1)Nc1nnc(CCSCCc2nnc(NC(=O)Cc3ccccc3)s2)s1` [BPTES], the EC50 with BT-474 cells is roughly 20 µM; in the experiment on DU4475 cells, greater than 20 µM; in the experiment with TSE cells (setting [2]) it was 3 µM; with TSE cells (TSE, proliferation over 6 days), 3.1 µM; in the experiment on T-47D cells it was roughly 20 µM; in the experiment with MDA-MB-231 cells (setting [3]) it was 2 µM. The EC50 in the experiment on MDA-MB-231 cells (setting [4]) was 2.1 µM; in the experiment on MCF7 cells, roughly 20 µM; in the experiment with Hs 578T cells, 3.7 µM. Besides, the “supply of glutamine-derived carbon to glutamate and the TCA cycle” value in experiment [1] (Hs 578T, 10 μM) was “potently inhibited”; in experiment [1] (MDA-MB-231, 10 μM) it was “potently inhibited”. Also, the glutamine anaplerosis entry in experiment [1] (MCF7, 10 μM) is recorded as “partially blocked”. The glutamine-mediated anaplerosis result in experiment [1] (MDA-MB-453, 10 μM) is recorded as “no impact”.
As to `CN(C)c1ccc(C2Nc3ccc4ccccc4c3C3=C2C(=O)CC(C)(C)C3)cc1Br` (stereo not shown) [Compound 968], the EC50 in the experiment with BT-474 cells amounted to 4 µM; in the experiment on DU4475 cells, 4 µM; in the experiment on TSE cells (setting [2]), 4 µM; with TSE cells (TSE, proliferation over 6 days), 5 µM; in the experiment on T-47D cells, 4 µM; in the experiment on MDA-MB-231 cells (setting [3]), 4 µM. In addition, the values for the EC50 with MDA-MB-231 cells (setting [4]), in the experiment on MCF7 cells and in the experiment with Hs 578T cells were 5 µM, 4 µM and 4 µM, respectively. For the same molecule, in experiment [1] (10 μM, MDA-MB-453 versus MDA-MB-231), the “anaplerosis effect compared between cell lines” value is “more pronounced in MDA-MB-453 cells than MDA-MB-231 cells”. The “total abundance of TCA cycle intermediates” value in experiment [1] (MDA-MB-231 and MDA-MB-453, 10 μM, different periods of time) was “decreased”. The “glutamine-mediated TCA cycle anaplerosis” value in experiment [1] (basal- and luminal-subtype cells, 10 μM, 10, 24 and 72 hours) is recorded as “time-dependent inhibition”.
